# According to patent publication US10428124B2, “Timothy grass allergens and methods and uses for immune response modulation” (LA JOLLA INSTITUTE FOR ALLERGY AND IMMUNOLOGY, priority 2012, dated 2019):
# Key:
# [1] = tested on: PBMCs from TG allergic donors; assay: IL-5 ELISPOT of TG extract-expanded PBMCs from TG allergic donors (peptide pools, single peptides, TG extract); assay type: cell-based, human
# Procedure: Each donor was recruited following Institutional Review Board approval (Federal Wide Assurance number 00000032) and informed consent and assigned a study identification number. Donors were tested for allergen reactivity by skin prick tests to extracts from 32 common allergens. TG allergic donors were identified as having a skin reaction with a wheal of 5 mm in diameter to TG and a clinical history consistent with seasonal grass pollen allergy. Donors that had received specific immunotherapy were excluded. Non-allergic donors were identified as having negative skin prick tests to all allergens and no clinical history of allergy.
# PBMCs were isolated by density gradient centrifugation from one unit of blood (˜450 ml) and cryo-preserved as described previously (12). For in vitro expansions, PBMCs were thawed and cultured in RPMI 1640 (Ω Scientific, Tarzana, Calif.) supplemented with 5% human AB serum (Cellgro, Herndon, Va.) at a density of 2×10^6 cells/ml in 24-well plates (BD Biosciences, San Jose, Calif.) and stimulated with TG pollen extract ([…]) (Greer, Lenoir, N.C.). Cells were kept at 37° C., 5% CO2 and additional IL-2 and IL-7 (10 U/ml, eBioscience, San Diego, Calif.) was added every 3 d after initial antigenic stimulation. On day 14, cells were harvested and screened for reactivity against TG-specific peptide pools (16-25 peptides/pool, averaging 20 peptides/pool). On day 17, peptides from positive pools were tested individually to identify the reactive epitopes.
# The production of IL-5 from cultured PBMCs in response to antigen stimulation was measured by ELISPOT as described previously (12). Briefly, 1×10^5 cells/well were incubated with peptide, peptide pool or TG extract (10 μg/ml, 5 μg/ml and 50 μg/ml, respectively). After 24 h, cells were removed and plates were incubated with 2 μg/ml biotinylated anti-human IL-5 Ab (Mabtech) at 37° C. After 2 h, plates were washed and avidin-peroxidase-complex was added (Vector Laboratories, Burlingame, Calif.) for 1 h at RT. Peroxidase-conjugated spots were developed with 3-amino-9-ethylcarvazole solution (Sigma-Aldrich, St. Louis, Mo.). Criteria for peptide pool positivity were 100 SFCs/106 PBMCs, p 0.05, and a stimulation index (SI) 2. Criteria for individual peptides were the same except a minimum of 20 SFCs was counted as positive.
# [2] = tested on: PBMCs from TG allergic donors; assay: IFNg ELISPOT of TG extract-expanded PBMCs from TG allergic donors (single peptides); assay type: cell-based, human; conditions: T cell recognition in TG allergic patients; for Total response IFNg Events: number of positive responses
# human IgE = assay: 2D gel immunoblot of TG extract with serum pool from 8 TG-allergic donors, IgE reactivity; assay type: binding; conditions: for Antibody reactvity IgE/IgG: IgE: E− = not IgE reactive
# Procedure: (§1) 2D DIGE (Difference Gel Electrophoresis) analysis. The complete 2D DIGE analysis was performed by Applied Biomics (Hayward, Calif., US). Briefly, TG extract was run on two 2D gels (3-10 pH range, 12% SDS-acrylamide gel), one was Coomassie blue stained, the other was blotted onto a nitrocellulose membrane. The membrane was then incubated with 5% dried milk in PBS/0.05% Tween to block non-specific binding and subsequently probed with a serum pool from 8 TG-allergic individuals at a dilution of 1:250. IgE and IgG binding was detected using goat anti-human IgE and rabbit anti-human IgG (Sigma-Aldrich, St. Louis, Mo.) and visualized using Cy2-conjugated donkey anti-goat IgG and Cy5-conjugated donkey […] IgG antibodies (Biotium, Hayward, Calif.).
# (§2) Mass spectral protein identification was performed by Applied Biomics (Hayward, Calif., US). Briefly, spots of interest were selected from the 2D blot and the corresponding spots were identified on the stained SDS gel and cut out, washed several times to remove staining dye and other inhibitory chemicals. The spots were then dried to absorb maximum digestion buffer. Dried 2D gel spots were rehydrated in digestion buffer containing trypsin. Proteins were digested in-gel at 37° C. and then extracted from the gel with TFA extraction buffer. Subsequently the peptides were desalted using C-18 Zip-tips (Millipore) and mixed with CHCA matrix (alpha-cyano-4-hydroxycinnamic acid) and spotted into wells of a MALDI plate. Mass spectra of the peptides in each sample were obtained using an Applied Biosystems Proteomics Analyzer. The spectra were compared to the amino acid sequences encoded by putative ORFs from the de novo assembled TG pollen transcripts. […] The amino acid sequences encoded by these ORFs were clustered using a custom script at a sequence similarity threshold of 90% to group together highly similar protein sequences. These sequences are encoded by different transcripts from the current assembly, which could arise from splice variants, allelic variation between cells of TG pollen, and from gene families with multiple members. Amino acid sequences that form one cluster are assigned one putative protein ID (Table 1).
# [3] = tested on: PBMCs from TG allergic donors; assay: IFNg ELISPOT of TG extract-expanded PBMCs (single peptides); assay type: cell-based, human; conditions: for Total response IFNg Events: number of positive response events to the 15-mer peptide
# human IgG = assay: 2D gel immunoblot of TG extract with serum pool from 8 TG-allergic donors, IgG reactivity; assay type: binding
# Procedure: as §1, §2
# [4] = tested on: PBMCs from TG allergic donors; assay: IFNg ELISPOT of TG extract-expanded PBMCs from TG allergic donors (single peptides); assay type: cell-based, human; conditions: TG allergic patients; number of positive responses
# [5] = tested on: PBMCs from TG allergic donors; assay: as above; assay type: cell-based, human; conditions: T cell recognition in TG allergic patients
# [6] = tested on: PBMCs from TG allergic donors; assay: as above; assay type: cell-based, human
# [7] = T cell recognition in TG allergic patients, number of positive responses
# [8] = number of positive response events to the 15-mer peptide
# [9] = reactivity of the parent TG antigen, given per peptide
# [10] = reactivity of the parent antigen
# [11] = reactivity of the parent TG antigen, given per peptide, G− = not IgG reactive
# [12] = reactivity of the parent antigen, G+ = IgG reactive, G− = not
substance,measurement,setting,value
86231 (IMQLLRDNLTLWTSD; Phleum pratense) [Peptide 86231],Total response IL-5 Events,[1]; [7],0
same,Total response IL-5 Events,[1]; [8],0
same,Total response IFNg SFC,[2],73 SFC
same,Total response IFNg Events,[2],1
same,Antibody reactvity IgE/IgG: IgE,human IgE; [9],E−
same,Antibody reactvity IgE/IgG: IgE,human IgE; [10],E−
same,Total response IFNg SFC,[3]; 15-mer peptide,73 SFC
same,Total response IFNg Events,[3],1
same,Antibody reactvity IgE/IgG: IgG,human IgG; [11],G−
same,Antibody reactvity IgE/IgG: IgG,human IgG; [12],G−
82109 (GDLYIFESRAICKYA; Phleum pratense) [Peptide 82109],Total response IL-5 SFC,[1]; 15-mer peptide,290 SFC
same,Total response IL-5 Events,"[1]; TG allergic patients, number of positive responses",1
same,Total response IL-5 SFC,"[1]; TG allergic patients, total spot-forming cells",290 SFC
same,Total response IL-5 Events,[1]; [8],1
same,Total response IFNg Events,[4],0
same,Antibody reactvity IgE/IgG (IgE part),human IgE; IgE reactivity of the parent antigen,E−
same,Antibody reactvity IgE/IgG: IgE,human IgE; [10],E−
same,Total response IFNg Events,[3],0
same,Antibody reactvity IgE/IgG (IgG part),human IgG; IgG reactivity of the parent antigen,G−
same,Antibody reactvity IgE/IgG: IgG,human IgG; [12],G−
882 (DVYPTVCLPMCVCVL; Phleum pratense) [Peptide 882],Total response IL-5 Events,[1]; [7],0
same,Total response IFNg Events,[2],0
same,Antibody reactvity IgE/IgG: IgE,human IgE; [9],E−
same,Antibody reactvity IgE/IgG: IgG,human IgG; [11],G−
26138 (KVINDRFGIVEGLMT; Phleum pratense) [Peptide 26138],Total response IFNg SFC,[5],37 SFC
same,Total response IFNg Events,[5]; number of response events,1
same,Total response IL-5 Events,"[1]; IL-5, number of positive response events",0
same,Total response IL-5 Events,"[1]; T cell recognition in TG allergic patients, number of response events",0
same,Antibody reactvity IgE/IgG (IgE part),"human IgE; E+ / E− part of the cell, reactivity of the parent antigen",E+
same,Antibody reactivity IgE/IgG: IgE,human IgE; IgE reactivity (E+/E−) of the source antigen of the peptide,E+
same,Total response IFNg Events,[6]; number of positive response events,1
same,Total response IFNg SFC,[6]; total SFC,37 SFC
same,Antibody reactvity IgE/IgG (IgG part),"human IgG; G+ / G− part of the cell, reactivity of the parent antigen",G−
same,Antibody reactivity IgE/IgG: IgG,human IgG; IgG reactivity (G+/G−) of the source antigen of the peptide,G−
